Measured values published in patent publication US20230392173A1, “ENGINEERED BIOSYNTHETIC PATHWAY FOR PRODUCTION OF 4-AMINOPHENYLETHYLAMINE BY FERMENTATION” (Zymergen Inc., priority 2020, published 2023).

How the values were obtained:
Assay type in all cases: cell-based
Saccharomyces cerevisiae = system: Saccharomyces cerevisiae
Description: (§1) FIG. 1: Toxicity impact of 4-APEA across a range of organisms tested in an Enzyscreen system. Various organisms are grown in media that is supplemented with the molecule of interest, and the growth of the organism is monitored over time. Analysis of the growth-time-course data allows determination of toxicity properties of the molecule of interest, such as the Minimal Inhibitory Concentration (MIC), the concentration at which growth is slowed to half (Ki), and the slope at which increased toxicity effects are observed (alpha). For FIG. 1, product toxicity was measured as a function of reduced substrate uptake with increasing product concentration.
(§2) The term “Ki,” as used herein, refers to the concentration of a chemical (e.g., 4-APEA) at which the maximal growth rate of cells in culture is slowed by half. Cultures of the cells are grown in media supplemented with varying concentrations of a chemical, and the cell growth is monitored over time. Exponential growth curve data at each chemical concentration are used to determine a specific growth rate p using the following equation:
(§3) where: X=cell concentration X0=cell concentration at time (t)=0 μ=specific growth rate. The maximal growth rate for each chemical concentration is determined (μobs) and the Ki is the chemical concentration at which the maximal growth rate has been slowed to half of the maximal growth rate in the absence of the chemical (μmax). Ki (denoted K1 below) can be determined from the equation:
(§4) where: CI=concentration of inhibitor KI=inhibition constant—inhibitor concentration where growth rate is half of maximum α=inhibition parameter to fit data μmax=the maximum growth rate of a culture in the absence of a chemical μobs=the maximum growth rate of a culture at a given concentration of a chemical
(§5) The term “alpha” (“α”), as used herein, refers to the slope at which toxicity effects are observed. Cultures of the cells are grown in media supplemented with increasing concentrations of a chemical, and the cell growth is monitored over time. Alpha can be determined from the equation: […]
(§6) One obstacle to efficient production of 4-aminophenylethylamine (4-APEA) by fermentation is that 4-APEA is toxic to many host microbes used conventionally for fermentation. FIG. 1 depicts the concentration of 4-APEA at which an organism's growth is slowed by half (Ki) and the slope (alpha) at which toxicity effects are observed over increasing 4-APEA concentrations. A larger Ki and smaller alpha indicate higher tolerance and less susceptibility to inhibition, respectively. […] K. phaffi is expected to perform similarly to K. pastoris as a production host.

Bacillus licheniformis = system: Bacillus licheniformis
Description: as §1, §2, §3, §4, §5, §6

Komagataella phaffi = system: Komagataella phaffi
Description: as §1, §2, §3, §4, §5, §6

Yarrowia lipolytica = system: Yarrowia lipolytica
Description: as §1, §2, §3, §4, §5, §6

NCCc1ccc(N)cc1 [Strain 4-APEA, 4-aminophenylethylamine]
toxicity of 4-APEA (growth inhibition) (Saccharomyces cerevisiae): substantial toxicity | toxicity of 4-APEA (growth inhibition) (Bacillus licheniformis): better results | toxicity of 4-APEA (growth inhibition) (Komagataella phaffi): better results | toxicity of 4-APEA (growth inhibition) (Yarrowia lipolytica): better results
